Bounds are passed on as bounds.

The target of the assay is Human TRPA1 (Homo sapiens, UniProt O75762). Briefly: Assay 1: In vitro cellular testing of TRPA1 modulation (CHO-TREx, Fluo-3 calcium fluorescence, AITC agonist). It counts as cell-based. As to conditions: CHO-TREx cells expressing human TRPA1; Fluo-3 fluorescence (FLIPR/Tetra); agonist 15 μM allyl isothiocyanate (AITC); 30 minute antagonist incubation. Set-up: expressed in transfected cells; host or cells: CHO-TREx cells (Invitrogen), vector pcDNA4/TO. Summed up: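 Tetracycline-induced CHO-TREx cells stably expressing human TRPA1, loaded with 4 μM Fluo-3 AM, preincubated 30 min with compound (serial dilution typically from 10 μM, three-fold steps) in HEPES saline pH 7.4. Fluorescence change over 3 min after 15 μM AITC; IC50 from Hill fit versus no-antagonist and 10 μM ruthenium red controls.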
Human TRPA1, sequence (O75762 whole entry): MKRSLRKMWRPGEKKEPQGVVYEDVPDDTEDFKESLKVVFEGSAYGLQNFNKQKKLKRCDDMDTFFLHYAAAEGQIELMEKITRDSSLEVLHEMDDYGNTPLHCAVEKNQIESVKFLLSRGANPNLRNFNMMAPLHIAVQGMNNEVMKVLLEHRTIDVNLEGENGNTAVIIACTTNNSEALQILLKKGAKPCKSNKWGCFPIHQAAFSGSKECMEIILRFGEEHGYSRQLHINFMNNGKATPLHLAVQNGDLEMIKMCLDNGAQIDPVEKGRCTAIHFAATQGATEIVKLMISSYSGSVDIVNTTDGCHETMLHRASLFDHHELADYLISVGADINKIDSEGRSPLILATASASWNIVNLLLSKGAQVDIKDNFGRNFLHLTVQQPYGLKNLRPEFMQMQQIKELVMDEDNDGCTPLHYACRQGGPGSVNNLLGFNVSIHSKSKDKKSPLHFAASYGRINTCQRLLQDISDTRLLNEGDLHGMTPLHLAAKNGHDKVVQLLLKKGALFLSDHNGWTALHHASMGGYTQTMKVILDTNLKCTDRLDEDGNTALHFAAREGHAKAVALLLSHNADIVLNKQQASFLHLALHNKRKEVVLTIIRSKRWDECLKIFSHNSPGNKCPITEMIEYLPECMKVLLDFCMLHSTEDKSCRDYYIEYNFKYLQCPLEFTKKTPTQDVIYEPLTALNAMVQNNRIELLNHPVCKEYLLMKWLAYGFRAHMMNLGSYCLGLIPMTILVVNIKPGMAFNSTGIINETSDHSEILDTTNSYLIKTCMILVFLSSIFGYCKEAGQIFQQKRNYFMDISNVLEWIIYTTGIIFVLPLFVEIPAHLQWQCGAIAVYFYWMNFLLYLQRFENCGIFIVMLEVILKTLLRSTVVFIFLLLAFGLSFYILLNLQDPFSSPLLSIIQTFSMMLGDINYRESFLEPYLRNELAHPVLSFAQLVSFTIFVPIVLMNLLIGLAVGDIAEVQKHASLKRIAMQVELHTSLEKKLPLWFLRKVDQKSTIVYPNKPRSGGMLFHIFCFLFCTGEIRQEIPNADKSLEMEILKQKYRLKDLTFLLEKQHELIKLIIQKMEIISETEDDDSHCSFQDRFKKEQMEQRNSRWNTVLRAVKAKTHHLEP
With `CC1CCCN1c1nc(CNC(=O)[C@@H]2CCCN2S(=O)(=O)c2ccc(Cl)s2)cc(-c2ccc(C(F)(F)F)cc2)n1` (stereo partly drawn) [Example 48, 1-(5-Chloro-thiophene-2-sulfonyl)-pyrrolidine-2S-carboxylic acid [2-(2-methyl-pyrrolidin-1-yl)-6-(4-trifluoromethyl-phenyl)-pyrimidin-4-ylmethyl]-amide], the IC50 came to 6 nM.
As to `CC(C)CN1CCN(c2nc(CNC(=O)[C@@H]3CC(F)(F)CN3S(=O)(=O)c3ccc(Cl)s3)cc(-c3ccc(C(F)(F)F)cc3)n2)CC1` [Example 57, 1-(5-Chloro-thiophene-2-sulfonyl)-4,4-difluoro-pyrrolidine-2S-carboxylic acid [2-(4-isobutyl-piperazin-1-yl)-6-(4-trifluoromethyl-phenyl)-pyrimidin-4-ylmethyl]-amide], the IC50 was 194 nM.
On to `CC(Nc1cc(CNC(=O)[C@@H]2CCCN2S(=O)(=O)c2ccc(F)cc2)cc(-c2ccc(C(F)(F)F)cc2)n1)c1ccccn1` (stereo partly drawn) [Example 408, 1-[(4-Fluorophenyl)sulfonyl]-N-({2-[(1-pyridin-2-ylethyl)amino]-6-[4-(trifluoromethyl)phenyl]pyridin-4-yl}methyl)-L-prolinamide], for which the IC50 is 54 nM.
With `CC1CCCN1c1cc(CNC(=O)[C@@H]2CC(F)(F)CN2S(=O)(=O)c2ccc(Cl)s2)cc(-c2ccc(C(F)(F)F)cc2)n1` (stereo partly drawn) [Example 397, 1-[(5-Chlorothiophen-2-yl)sulfonyl]-4,4-difluoro-N-({2-(2-methylpyrrolidin-1-yl)-6-[4-(trifluoromethyl)phenyl]pyridin-4-yl}methyl)-L-prolinamide], the IC50 was 2950 nM.
In the case of `CNc1cc(CNC(=O)[C@@H]2C=CCN2S(=O)(=O)c2ccc(Cl)s2)cc(-c2ccc(C(F)(F)F)cc2)n1` [Example 379, (2S)-1-[(5-Chlorothiophen-2-yl)sulfonyl]-N-({2-(methylamino)-6-[4-(trifluoromethyl)phenyl]pyridin-4-yl}methyl)-2,5-dihydro-1H-pyrrole-2-carboxamide], the IC50 worked out at 380 nM.
Turning to `O=C(NCc1cc(-c2ccc(C(F)(F)F)cc2)nc(N2CCN(Cc3ccccn3)CC2)c1)[C@@H]1CCCN1S(=O)(=O)c1ccc(F)cc1` [Example 348, 1-[(4-Fluorophenyl)sulfonyl]-N-({2-[4-(pyridin-2-ylmethyl)piperazin-1-yl]-6-[4-(trifluoromethyl)phenyl]pyridin-4-yl}methyl)-L-prolinamide], the IC50 turned out to be 1630 nM.
On to `CCc1ccccc1CN1CCN(c2nc(CNC(=O)[C@@H]3CCCN3S(=O)(=O)c3ccc(F)cc3)cc(-c3ccc(C(F)(F)F)cc3)n2)CC1` [Example 52, 1-(4-Fluoro-benzenesulfonyl)-pyrrolidine-2S-carboxylic acid [2-[4-(2-ethyl-benzyl)-piperazin-1-yl]-6-(4-trifluoromethyl-phenyl)-pyrimidin-4-ylmethyl]-amide], for which the concentration for half-maximal inhibition (IC50) came out at 13 nM.
Turning to `CN(C)c1cc(CNC(=O)[C@@H]2C=CCN2S(=O)(=O)c2ccc(F)cc2)cc(-c2ccc(C(F)(F)F)cc2)n1` [Example 338, (2S)—N-({2-(Dimethylamino)-6-[4-(trifluoromethyl)phenyl]pyridin-4-yl}methyl)-1-[(4-fluorophenyl)sulfonyl]-2,5-dihydro-1H-pyrrole-2-carboxamide], the IC50 worked out at 382 nM.
Under `O=C(NCc1cc(-c2ccc(C(F)(F)F)cc2)nc(N2CCN(c3ccccc3F)CC2)c1)[C@@H]1CC(F)(F)CN1S(=O)(=O)c1ccc(Cl)s1` [Example 358, 1-[(5-Chlorothiophen-2-yl)sulfonyl]-4,4-difluoro-N-({2-[4-(2-fluorophenyl)piperazin-1-yl]-6-[4-(trifluoromethyl)phenyl]pyridin-4-yl}methyl)-L-prolinamide] stands more than 10000 nM.
As for `O=C(NCc1cc(NCc2ccncc2)nc(-c2ccc(C(F)(F)F)cc2)c1)[C@@H]1C=CCN1S(=O)(=O)c1ccc(Cl)s1` [Example 391, (2S)-1-[(5-Chlorothiophen-2-yl)sulfonyl]-N-({2-[(pyridin-4-ylmethyl)amino]-6-[4-(trifluoromethyl)phenyl]pyridin-4-yl}methyl)-2,5-dihydro-1H-pyrrole-2-carboxamide], the concentration for half-maximal inhibition (IC50) is 797 nM.
In the case of `CC1CCCN1c1nc(CNC(=O)[C@@H]2CC(F)(F)CN2S(=O)(=O)c2ccc(Cl)s2)cc(-c2ccc(C(F)(F)F)cc2)n1` (stereo partly drawn) [Example 60, 1-(5-Chloro-thiophene-2-sulfonyl)-4,4-difluoro-pyrrolidine-2S-carboxylic acid [2-(2-methyl-pyrrolidin-1-yl)-6-(4-trifluoromethyl-phenyl)-pyrimidin-4-ylmethyl]-amide], the IC50 was 6170 nM.
With `O=C(NCc1cccc(-c2ccc(C(F)(F)F)cc2)c1)[C@@H]1CCCN1S(=O)(=O)c1ccc(F)cc1` [Example 65, 1-(4-Fluorobenzenesulfonyl)-pyrrolidine-2S-carboxylic acid (4′-trifluoromethylbiphenyl-3-ylmethyl)-amide] the figure was 15 nM; with `CCN(CC)C1CCN(c2nc(CNC(=O)[C@@H]3CCCN3S(=O)(=O)c3ccc(Cl)s3)cc(-c3ccc(C(F)(F)F)cc3)n2)C1` (stereo partly drawn) [Example 54, 1-(5-Chloro-thiophene-2-sulfonyl)-pyrrolidine-2S-carboxylic acid [2-(3-diethylamino-pyrrolidin-1-yl)-6-(4-trifluoromethyl-phenyl)-pyrimidin-4-ylmethyl]-amide], 1070 nM; with `COc1ccc(-c2cccc(CNC(=O)[C@@H]3CCCN3S(=O)(=O)c3ccc(F)cc3)c2)cn1` [Example 84, 1-(4-Fluorobenzenesulfonyl)-pyrrolidine-2S-carboxylic acid 3-(6-methoxypyridin-3-yl)-benzylamide], 340 nM.
Consider `O=C(NCc1cc(-c2ccc(C(F)(F)F)cc2)ncn1)[C@@H]1CCCN1S(=O)(=O)c1ccccc1` [Example 160, 1-Benzenesulfonylpyrrolidine-2S-carboxylic acid [6-(4-trifluoromethylphenyl)-pyrimidin-4-ylmethyl]-amide], for which the IC50 stood at 77 nM.
Under `COc1nc(CNC(=O)[C@@H]2CCCN2S(=O)(=O)c2ccc(F)cc2)cc(-c2ccc(C(F)(F)F)cc2)n1` [Example 2, 1-(4-Fluoro-benzenesulfonyl)-pyrrolidine-2S-carboxylic acid [2-methoxy-6-(4-trifluoromethyl-phenyl)-pyrimidin-4-ylmethyl]-amide] stands 40 nM; under `O=C(NCc1cc(-c2ccc(C(F)(F)F)cc2)ccn1)[C@@H]1C=CCN1S(=O)(=O)c1ccc(F)cc1` [Example 143, 1-(4-Fluoro-benzenesulfonyl)-2,5-dihydro-1H-pyrrole-2S-carboxylic acid [4-(4-trifluoromethyl-phenyl)-pyridin-2-ylmethyl]-amide], 10 nM.
With `CNc1cc(CNC(=O)[C@@H]2CC(F)(F)CN2S(=O)(=O)c2ccc(F)cc2)cc(-c2ccc(C(F)(F)F)cc2)n1` [Example 360, 4,4-Difluoro-1-[(4-fluorophenyl)sulfonyl]-N-({2-(methylamino)-6-[4-(trifluoromethyl)phenyl]pyridin-4-yl}methyl)-L-prolinamide], the concentration for half-maximal inhibition (IC50) was 2280 nM.
Regarding `CNc1cc(CNC(=O)[C@@H]2C=CCN2S(=O)(=O)c2ccc(F)cc2)cc(-c2ccc(C(F)(F)F)cc2)n1` [Example 372, (2S)-1-[(4-Fluorophenyl)sulfonyl]-N-({2-(methylamino)-6-[4-(trifluoromethyl)phenyl]pyridin-4-yl}methyl)-2,5-dihydro-1H-pyrrole-2-carboxamide], the IC50 amounted to 1610 nM.
On to `CC(Nc1cc(CNC(=O)[C@@H]2C=CCN2S(=O)(=O)c2ccc(Cl)s2)cc(-c2ccc(C(F)(F)F)cc2)n1)c1cccnc1` (stereo partly drawn) [Example 351, (2S)-1-[(5-Chlorothiophen-2-yl)sulfonyl]-N-({2-[(1-pyridin-3-ylethyl)amino]-6-[4-(trifluoromethyl)phenyl]pyridin-4-yl}methyl)-2,5-dihydro-1H-pyrrole-2-carboxamide], for which the IC50 was more than 10000 nM.
`O=C(NCc1cc(-c2ccc(C(F)(F)F)cc2)ccn1)[C@@H]1CC(F)(F)CN1S(=O)(=O)c1ccc(Cl)s1` [Example 140, 1-(5-Chloro-thiophene-2-sulfonyl)-4,4-difluoro-pyrrolidine-2S-carboxylic acid [4-(4-trifluoromethyl-phenyl)-pyridin-2-ylmethyl]-amide]: the concentration for half-maximal inhibition (IC50) came out at 79 nM.
For the molecule `O=C(NCc1cc(-c2ccc(C(F)(F)F)cc2)nc(N2CCCC2)c1)[C@@H]1CCCN1S(=O)(=O)c1ccc(F)cc1` [Example 317, 1-(4-Fluoro-benzenesulfonyl)-pyrrolidine-S2-carboxylic acid [2-pyrrolidin-1-yl-6-(4-trifluoromethyl-phenyl)-pyridin-4-ylmethyl]-amide], the half-inhibitory concentration (IC50) amounted to 16 nM.
With `O=C(NCc1cccc(-c2ccc(C(F)(F)F)nc2)c1)[C@@H]1CCCN1S(=O)(=O)c1ccc(F)cc1` [Example 88, 1-(4-Fluorobenzenesulfonyl)-pyrrolidine-2S-carboxylic acid 3-(6-trifluoromethylpyridin-3-yl)-benzyl amide] the figure was 17 nM; with `CN(C)[C@H]1CCN(c2nc(CNC(=O)[C@@H]3CCCN3S(=O)(=O)c3ccc(Cl)s3)cc(-c3ccc(C(F)(F)F)cc3)n2)C1` [Example 33, 1-(5-Chloro-thiophene-2-sulfonyl)-pyrrolidine-2S-carboxylic acid [2-(3S-dimethylamino-pyrrolidin-1-yl)-6-(4-trifluoromethyl-phenyl)-pyrimidin-4-ylmethyl]-amide], 469 nM.
Take `Cc1cccc(S(=O)(=O)N2CCC[C@H]2C(=O)NCc2cc(-c3ccc(C(F)(F)F)cc3)ncn2)c1` [Example 156, 1-(Toluene-3-sulfonyl)-pyrrolidine-2S-carboxylic acid [6-(4-trifluoromethylphenyl)-pyrimidin-4-ylmethyl]-amide]: the IC50 was 388 nM.

As usually defined, the IC50 is the concentration needed to halve the response being measured.

The values above are taken from patent publication US8614201B2 (Janssen Pharmaceutica NV, priority 2009, dated 2013).
